In brackets after ≈: the same amount, converted by molar mass.

For experiment [1], the system named is E. coli. Briefly: Serial Dilution Test (Broth Titer Test), antibacterial, E. coli. In kind it is cell-based, Escherichia coli. Particulars: for MIC: Escherichia coli, read-out: SDT, MIC; for SDT, MIC: in vitro serial dilution test, E = E. coli. The procedure: (§1) Antibacterial and antifungal activity were evaluated by the Serial Dilution Test (Broth Titer Test) wherein a series of broths containing varying dilutions of a test compound and an organism are halved starting with 1:1,000. The values shown represent the maximum dilution in parts per million at which the compound under evaluation renders complete control of the organism. Pseudomonas aeruginosa (P), Staphylococcus aureus (S), and Escherichia coli (E) were the bacterial organisms employed in this test, and the fungi employed were Aspergillus niger (A) and Rhizopus stolonifer (R).
(§2) ^a In vitro serial dilution test (SDT), minimum inhibitory
(§3) concentrations (MIC) against E = E. coli, P = Ps. aeruginosa, S =
(§4) Staphylococcus aureus, A = A. niger, and R = Rhizopus stolonifer are give
(§5) in parts per million of a biocide.

Experiment [2] relates to Ps. aeruginosa. Briefly: Serial Dilution Test (Broth Titer Test), antibacterial, Ps. aeruginosa. It counts as cell-based, Pseudomonas aeruginosa. Conditions: for MIC: Pseudomonas aeruginosa, read-out: SDT, MIC; for SDT, MIC: in vitro serial dilution test, P = Ps. aeruginosa. On the procedure:
as §1, §2, §3, §4, §5

Experiment [3] concerns Staphylococcus aureus. Briefly: Serial Dilution Test (Broth Titer Test), antibacterial, Staphylococcus aureus. It counts as cell-based. Conditions: for MIC: Staphylococcus aureus, read-out: SDT, MIC; for SDT, MIC: in vitro serial dilution test, S = Staphylococcus aureus. The procedure:
as §1, §2, §3, §4, §5

For experiment [4], the system named is A. niger. Briefly: Serial Dilution Test (Broth Titer Test), antifungal, A. niger. In kind it is cell-based, Aspergillus niger. Conditions: in vitro serial dilution test; for MIC: Aspergillus niger, read-out: SDT, MIC. The procedure:
as §1, §2, §3, §4, §5

Experiment [5] relates to Rhizopus stolonifer. Briefly: Serial Dilution Test (Broth Titer Test), antifungal, Rhizopus stolonifer. It counts as cell-based. Conditions: in vitro serial dilution test, R = Rhizopus stolonifer; for MIC: read-out: SDT, MIC. The procedure: as §1, §2, §3, §4, §5
For experiment [6], the system named is Helminthosporium teres. Briefly: whole plant or invertebrate. In kind it is in vivo. Conditions: Pyrenophora teres, in Hordeum vulgare; 300 ppm; read-out: Disease Control Level, BH.
Experiment [7] concerns Botrytis cinerea. Briefly: whole plant or invertebrate. In kind it is in vivo. Conditions: for pest or weed control at 300 ppm: Botrytis cinerea, read-out: Disease Control Level, BOT.
For experiment [8], the system named is Erysiphe polygoni. Briefly: whole plant or invertebrate. It counts as in vivo. Conditions: read-out: Disease Control Level, BPM.
The test system of experiment [9] is Plasmopora viticola. Briefly: whole plant or invertebrate. In kind it is in vivo. Conditions: for pest or weed control at 300 ppm: read-out: Disease Control Level, GDM; for Disease Control Level, GDM: 150 ppm.
Experiment [10] has as its system Piricularia oryzae. Briefly: whole plant or invertebrate. Particulars: for Disease Control Level, RB: 150 ppm. It counts as in vivo.
Experiment [11] has as its system Phytophthora infestans. Briefly: whole plant or invertebrate. Conditions: Phytophthora infestans, in Solanum lycopersicum, read-out: Disease Control Level, TLB. In kind it is in vivo.
Experiment [12] concerns Puccinia graminis f. sp. tritici. Briefly: whole plant or invertebrate. In kind it is in vivo, Puccinia graminis f. sp. tritici race 15B-2.
The mark [13] stands for this setting: Pyricularia oryzae, read-out: Disease Control Level, RB.
Where [14] appears, read: Puccinia graminis, read-out: Disease Control Level, WSR.

Turning to `Cc1c(SC(=S)N(C)C)sn(C2CCCCC2)c1=O` [Example 11], the MIC (in general, the lowest concentration that inhibits growth of the organism) in [1] worked out at 500 µg/mL (≈ 1580 µM); in [2], 500 µg/mL (≈ 1580 µM); in experiment [3], 500 µg/mL (≈ 1580 µM); in experiment [4] it was 500 µg/mL (≈ 1580 µM); in [5], 250 µg/mL (≈ 790 µM). Also, the pest or weed control at 300 ppm in [6], in experiment [7], in experiment [8], in experiment [9], in [10] (setting [13]) and in [11] was 50% throughout. Also, in [12] (setting [14]), the pest or weed control at 300 ppm was 70 to 89%.

For `Cc1c(SC(=S)N(C)C)sn(-c2ccc(Br)cc2)c1=O` [Example 8], the “SDT, MIC” value in experiment [1] is on record as 500 PPM; in experiment [2], 500 PPM; in experiment [3], 500 PPM; in experiment [4] it was 500 PPM; in [5] it was 250 PPM. Further, the “Disease Control Level, GDM” value in experiment [9] is recorded as “A/B”. In addition, the “Disease Control Level, RB” value in experiment [10] is on record as “A/E”. Further, the “Disease Control Level, WSR” value in experiment [12] (150 ppm, wheat seedlings) is “C/C”.

On to `Cc1c(SC(=S)N(C)C)sn(-c2ccc(Cl)cc2)c1=O` [Example 9], for which the “SDT, MIC” value in experiment [1] turned out to be 500 PPM; in [2], 500 PPM; in [3], 500 PPM; in experiment [4], 500 PPM; in experiment [5], 250 PPM. Also, in experiment [7] (150 ppm), the “Disease Control Level, BOT” value is “C/C”. Further, in [9], the “Disease Control Level, GDM” value is recorded as “A/E”. The “Disease Control Level, RB” value in experiment [10] is “A/A”.

For `O=c1cc(N2CCCCC2)sn1CCc1ccccc1` [Example 14, 5-Piperidino-2-phenethyl-4-isothiazolin-3-one], the MIC in experiment [1] was found to be 500 µg/mL (≈ 1730 µM); in experiment [2] it was 500 µg/mL (≈ 1730 µM); in experiment [3], 500 µg/mL (≈ 1730 µM); in experiment [4], 250 µg/mL (≈ 867 µM); in experiment [5], 125 µg/mL (≈ 433 µM). The pest or weed control at 300 ppm in experiment [6] was 50%; in experiment [7], 50%; in experiment [8], 50%; in [9], 50%; in [10] (setting [13]), 97 to 100%; in experiment [11], 50%. The pest or weed control at 300 ppm in experiment [12] (setting [14]) lay in the range of 97 to 100%. For the same compound, the “Disease Control Level, RB” value in [10] is “A/E”. In addition, the pest or weed control at 38 ppm in [10] (setting [13]) and in [12] (setting [14]) was 50% each time. Further, the pest or weed control at 75 ppm was 97 to 100% in experiment [10] (setting [13]) and 50% in [12] (setting [14]). For the same compound, the pest or weed control at 150 ppm in [12] (setting [14]) amounted to 50%.
